# Assay results taken from ChEMBL document CHEMBL3885861, “Open TG-GATES”.
# Species: Rattus norvegicus
# Test: Open TG-GATES - Regimen: Single
# Assay type: toxicity, organism-based, Sprague-Dawley
# Set-up: regimen Single, gender Male, age 6 weeks
# Details: in vivo, iv, 10 mg/kg, route intravenous injection, dose level High; for KIDNEY_L / KIDNEY_R / KIDNEY_TOTAL: tissue Kidney; for LIVER: tissue Liver; for ALP / ALT / AST / CRE / DBIL / GLC / K / LDH / Na / RALB / TBIL / TC / TG / TP / gamma-GTP: tissue Plasma
compound,measurement,setting,value
COc1cccc2c1C(=O)c1c(O)c3c(c(O)c1C2=O)C[C@@](O)(C(=O)CO)C[C@@H]3O[C@H]1C[C@H](N)[C@H](O)[C@H](C)O1 [DOXORUBICIN],Eos,"3 h, tissue Blood",0.6%
same,Fbg,"3 h, tissue Blood",275.8 mg/dL
same,Ht,"3 h, tissue Blood",37.5%
same,Lym,"3 h, tissue Blood",60.4%
same,MCH,"3 h, tissue Blood",21.8 pg
same,MCHC,"3 h, tissue Blood",34.9%
same,MCV,"3 h, tissue Blood",62.3 fL
same,Mono,"3 h, tissue Blood",8.8%
same,Neu,"3 h, tissue Blood",27.4%
same,PT,"3 h, tissue Blood",16.5 s
same,Plat,"3 h, tissue Blood",121.7 x10_4/uL
same,RBC,"3 h, tissue Blood",603 x10_4/ul
same,Ret,"3 h, tissue Blood",6.2%
same,KIDNEY_L,3 h,0.9 g
same,KIDNEY_R,3 h,0.9 g
same,KIDNEY_TOTAL,3 h,1.9 g
same,LIVER,3 h,9.3 g
same,ALP,3 h,1462.4 IU/L
same,ALT,3 h,43 IU/L
same,AST,3 h,86.6 IU/L
same,CRE,3 h,0.1 mg/dL
same,DBIL,3 h,0 mg/dL
same,GLC,3 h,171.4 mg/dL
same,K,3 h,4.6 meq/L
same,LDH,3 h,187.2 IU/L
same,Na,3 h,141.4 meq/L
same,RALB,3 h,2.9 g/dL
same,TBIL,3 h,0.008 mg/dL
same,TC,3 h,75.4 mg/dL
same,TG,3 h,140 mg/dL
same,TP,3 h,5.1 g/dL
same,gamma-GTP,3 h,1.6 IU/L
same,TERMINAL_BW,6 h,205.6 g
same,Bas,"6 h, tissue Blood",0%
same,Eos,"6 h, tissue Blood",0.2%
same,Fbg,"6 h, tissue Blood",275.8 mg/dL
same,Ht,"6 h, tissue Blood",38%
same,Lym,"6 h, tissue Blood",64%
same,MCH,"6 h, tissue Blood",21.6 pg
same,MCHC,"6 h, tissue Blood",34%
same,MCV,"6 h, tissue Blood",63.4 fL
same,Mono,"6 h, tissue Blood",6.4%
same,Neu,"6 h, tissue Blood",26.4%
same,PT,"6 h, tissue Blood",16.2 s
same,Plat,"6 h, tissue Blood",118.6 x10_4/uL
same,RBC,"6 h, tissue Blood",599 x10_4/ul
same,Ret,"6 h, tissue Blood",6.9%
same,KIDNEY_L,6 h,0.9 g
same,KIDNEY_R,6 h,0.9 g
same,KIDNEY_TOTAL,6 h,1.8 g
same,LIVER,6 h,8.7 g
same,ALP,6 h,1468.4 IU/L
same,AST,6 h,86.4 IU/L
same,CRE,6 h,0.2 mg/dL
same,DBIL,6 h,0 mg/dL
same,GLC,6 h,190.8 mg/dL
same,K,6 h,4 meq/L
same,LDH,6 h,180 IU/L
same,Na,6 h,141 meq/L
same,RALB,6 h,2.9 g/dL
same,TBIL,6 h,0.036 mg/dL
same,TC,6 h,69.4 mg/dL
same,TG,6 h,54.4 mg/dL
same,TP,6 h,5.1 g/dL
same,gamma-GTP,6 h,1.6 IU/L
same,TERMINAL_BW,9 h,206.9 g
same,Bas,"9 h, tissue Blood",0%
same,Eos,"9 h, tissue Blood",0.4%
same,Fbg,"9 h, tissue Blood",279.2 mg/dL
same,Hb,"9 h, tissue Blood",13 g/dL
same,Ht,"9 h, tissue Blood",38.2%
same,Lym,"9 h, tissue Blood",56.2%
same,MCH,"9 h, tissue Blood",21.3 pg
same,MCHC,"9 h, tissue Blood",34.1%
same,MCV,"9 h, tissue Blood",62.5 fL
same,Mono,"9 h, tissue Blood",5.6%
same,Neu,"9 h, tissue Blood",35.4%
same,PT,"9 h, tissue Blood",15.9 s
same,Plat,"9 h, tissue Blood",118.9 x10_4/uL
same,RBC,"9 h, tissue Blood",611.6 x10_4/ul
same,Ret,"9 h, tissue Blood",6.1%
same,KIDNEY_L,9 h,0.9 g
same,KIDNEY_R,9 h,0.9 g
same,KIDNEY_TOTAL,9 h,1.9 g
same,LIVER,9 h,8.2 g
same,ALP,9 h,1273.6 IU/L
same,AST,9 h,84.2 IU/L
same,CRE,9 h,0.1 mg/dL
same,DBIL,9 h,0.002 mg/dL
same,GLC,9 h,186.2 mg/dL
same,K,9 h,4.1 meq/L
same,Na,9 h,139.6 meq/L
same,RALB,9 h,3 g/dL
same,TBIL,9 h,0.036 mg/dL
same,TC,9 h,68.4 mg/dL
same,TG,9 h,56.8 mg/dL
same,TP,9 h,5.2 g/dL
same,gamma-GTP,9 h,1.2 IU/L
same,TERMINAL_BW,24 h,206.3 g
same,Bas,"24 h, tissue Blood",0%
same,Eos,"24 h, tissue Blood",0.8%
same,Fbg,"24 h, tissue Blood",323 mg/dL
same,Ht,"24 h, tissue Blood",37.9%
same,Lym,"24 h, tissue Blood",74.2%
same,MCH,"24 h, tissue Blood",22.1 pg
same,MCHC,"24 h, tissue Blood",35.9%
same,MCV,"24 h, tissue Blood",61.6 fL
same,Mono,"24 h, tissue Blood",3%
same,Neu,"24 h, tissue Blood",20.8%
same,PT,"24 h, tissue Blood",15.9 s
same,Plat,"24 h, tissue Blood",131.1 x10_4/uL
same,RBC,"24 h, tissue Blood",615.6 x10_4/ul
same,Ret,"24 h, tissue Blood",3.2%
same,KIDNEY_L,24 h,0.9 g
same,KIDNEY_R,24 h,0.9 g
same,KIDNEY_TOTAL,24 h,1.8 g
same,LIVER,24 h,9.1 g
same,ALP,24 h,1298.4 IU/L
same,ALT,24 h,28 IU/L
same,CRE,24 h,0.2 mg/dL
same,DBIL,24 h,0 mg/dL
same,GLC,24 h,208.8 mg/dL
same,K,24 h,4.9 meq/L
same,LDH,24 h,129.2 IU/L
same,Na,24 h,141.2 meq/L
same,RALB,24 h,2.9 g/dL
same,TBIL,24 h,0.014 mg/dL
same,TC,24 h,82.4 mg/dL
same,TG,24 h,60 mg/dL
same,TP,24 h,5.2 g/dL
same,gamma-GTP,24 h,1.4 IU/L
